Assay results published in patent publication US20210171503A1, “GLYCOLATE OXIDASE INHIBITORS AND USE THEREOF” (ORFAN BIOTECH INC., priority 2017, published 2021).
Structures can show the parent of a compound that is named as a salt.

Biological target: T1, mouse glycolate oxidase (mGO) (Mus musculus, UniProt Q9WU19)
T1 construct: His6 (N); made in house; host or cells: E. coli BL21 (DE3)
T1 sequence (Q9WU19 1-370): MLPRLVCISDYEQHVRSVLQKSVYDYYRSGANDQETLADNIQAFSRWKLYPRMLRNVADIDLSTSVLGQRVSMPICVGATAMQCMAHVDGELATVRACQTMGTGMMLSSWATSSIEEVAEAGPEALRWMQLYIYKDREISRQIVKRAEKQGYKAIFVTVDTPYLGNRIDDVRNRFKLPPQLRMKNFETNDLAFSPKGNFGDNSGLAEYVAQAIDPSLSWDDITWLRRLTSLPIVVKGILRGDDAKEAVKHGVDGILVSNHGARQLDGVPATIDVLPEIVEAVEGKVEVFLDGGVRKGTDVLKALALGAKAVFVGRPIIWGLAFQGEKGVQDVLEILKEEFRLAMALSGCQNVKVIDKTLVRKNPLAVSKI
Test: In vitro inhibition of mouse glycolate oxidase (mGO), HRP-coupled Trinder reaction
Assay type: biochemical
Details: compound tested at 100 μM; 40 mM glycolic acid as substrate; activity calculated at 1 minute
Description: Protein expression. BL21 (DE3) E. coli transformed with recombinant pET-15b expression vector containing mouse Hao1 cDNA with an N-terminal His6 tag was grown in LB medium in the presence of 0.1 mg/mL ampicillin. For purification of recombinant mGO expressed in BL21 E. coli, bacteria pellets were thawed and re-suspended in 2 mL lysis buffer (50 mM NaH2PO4, 300 mM NaCl, 10 mM imidazole, 50 μM flavin mononucleotide (FMN), pH 7.5), and then treated for 30 minutes with 1 mM phenylmethylsulfonyl fluoride (PMSF) for protease inhibition, 0.1% Triton X-100 and 0.2 mg/mL lysozyme to break cellular membranes. After sonication, cells were centrifuged and the supernatant containing the total cellular extract (pre-column fraction) was loaded into a Ni-NTA agarose column, and incubated for 30 minutes at 4° C. to allow binding. The column was washed with two bed volumes of lysis buffer with 20 mM imidazole to eliminate unbound proteins (wash fraction). mGO was eluted using the same buffer containing 300 mM imidazole. Fractions containing purified GO were dialyzed against 300 mL of dialysis buffer (50 mM NaH2PO4, 300 mM NaCl, pH 7.5) at 4° C. with agitation overnight, and then kept at 4° C. in darkness. Protein was quantified by the bicinchoninic acid (BCA) assay.
Inhibition assays. Enzymatic activity of mGO was determined in the presence of glycolate as substrate (40 mM glycolic acid) and phosphate buffer (50 mM KPO4, 0.1 mM EDTA, pH 7). The production of glyoxylate was indirectly measured by the quantification of hydrogen peroxide formed during the first oxidation reaction. This hydrogen peroxide reacted with 4.9 mM 4-aminoantipyrine and 0.1 mM sulphonated […] in a coupled horseradish peroxidase (HRP) reaction that yields a quinoneimine dye (FIG. 1) measured at 515 nm (Trinder reaction). Enzymatic activity was calculated at 1 minute after initiation of the Trinder reaction.

**Q.** How did the inhibition at 100 µM turn out when `Cc1onc(C(=O)O)c1Cc1ccc(-c2ccc(C#N)cc2)cc1` [Compound 1, 4-((4′-Cyano-[1, 1′-biphenyl]-4-yl)methyl)-5-methylisoxazole-3-carboxylic Acid] was run?
**A.** 30 to 60%

**Q.** With `Cc1onc(C(=O)O)c1Cc1ccc(Br)cc1` [Compound 2, 4-(4-Bromobenzyl)-5-methylisoxazole-3-carboxylic Acid] as the compound, how does the inhibition at 100 µM read?
**A.** < 30%

**Q.** Which inhibition at 100 µM does the source give for `Cc1onc(C(=O)O)c1Cc1ccc(Oc2ccccc2)cc1` [Compound 6, 5-Methyl-4-(4-phenoxybenzyl) isoxazole-3-carboxylic Acid] here?
**A.** 30 to 60%

**Q.** How did the inhibition at 100 µM turn out when `Cc1[nH]nc(C(=O)O)c1Cc1ccc(-c2ccc(C#N)cc2)cc1` [Compound 7, 4-((4′-Cyano-[1,1′-biphenyl]-4-yl)methyl)-5-methyl-H-pyrazole-3-carboxylic Acid] was run?
**A.** 30 to 60%

**Q.** For `Cc1[nH]nc(C(=O)O)c1Cc1ccc(Br)cc1` [Compound 8, 4-(4-Bromobenzyl)-5-methyl-1H-pyrazole-3-carboxylic Acid], which inhibition at 100 µM is on record?
**A.** < 30%

**Q.** For `Cc1[nH]nc(C(=O)O)c1Cc1ccc(Oc2ccccc2)cc1` [Compound 10, 5-Methyl-4-(4-phenoxybenzyl)-1H-pyrazole-3-carboxylic Acid], which inhibition at 100 µM is on record?
**A.** 30 to 60%

**Q.** Which inhibition at 100 µM does the source give for `Cc1[nH]nc(C(=O)O)c1Cc1ccc(F)cc1` [Compound 12, 5-Methyl-4-(4-fluorobenzyl) 1H-pyrazole-3-carboxylic Acid] here?
**A.** < 30%

**Q.** `Cc1snc(C(=O)O)c1Cc1ccc(F)cc1` [Compound 13, 4-(4-Fluorobenzyl)-5-methylisothiazole-3-carboxylic Acid] was tested. Which inhibition at 100 µM did it give?
**A.** < 30%

**Q.** `N#Cc1ccc(-c2ccc(Cc3snnc3C(=O)O)cc2)cc1` [Compound 14, 5-((4′-Cyano-[1,1′-biphenyl]-4-yl)methyl)-1,2,3-thiadiazole-4-carboxylic Acid] was tested. Which inhibition at 100 µM did it give?
**A.** 30 to 60%

**Q.** For `O=C(O)c1nnsc1Cc1ccc(Br)cc1` [Compound 15, 5-(4-Bromobenzyl)-1,2,3-thiadiazole-4-carboxylic Acid], which inhibition at 100 µM is on record?
**A.** > 60%

**Q.** With `O=C(O)c1nnsc1Cc1ccc(F)cc1` [Compound 16, 5-(4-Fluorobenzyl)-1,2,3-thiadiazole-4-carboxylic Acid] as the compound, how does the inhibition at 100 µM read?
**A.** < 30%

**Q.** How did the inhibition at 100 µM turn out when `O=C(O)c1nnsc1Cc1ccc(Oc2ccccc2)cc1` [Compound 18, 5-(4-Phenoxybenzyl)-1,2,3-thiadiazole-4-carboxylic Acid] was run?
**A.** 30 to 60%

**Q.** `O=C(O)c1nnccc1Cc1ccc(F)cc1` [Compound 19, 4-(4-Fluorobenzyl) pyridazine-3-carboxylic Acid] was tested. Which inhibition at 100 µM did it give?
**A.** 30 to 60%

**Q.** How did the inhibition at 100 µM turn out when `O=C(O)c1nnsc1Nc1ccc(-n2cccn2)cc1` [Compound 20, 5-((4-(1H-Pyrazol-1-yl)phenyl)amino)-1,2,3-thiadiazole-4-carboxylic Acid] was run?
**A.** > 60%

**Q.** How did the inhibition at 100 µM turn out when `O=C(O)c1nnsc1Nc1ccc(F)cc1` [Compound 22, 5-((4-Fluorophenyl)amino)-1,2,3-thiadiazole-4-carboxylic Acid] was run?
**A.** > 60%

**Q.** Which inhibition at 100 µM does the source give for `O=C(O)c1nnsc1Nc1cccc(Br)c1` [Compound 23, 5-((3-Bromophenyl)amino)-1,2,3-thiadiazole-4-carboxylic Acid] here?
**A.** > 60%

**Q.** `O=C(O)c1nnsc1Nc1ccc(Br)cc1` [Compound 24, 5-((4-Bromophenyl)amino)-1,2,3-thiadiazole-4-carboxylic Acid] was tested. Which inhibition at 100 µM did it give?
**A.** > 60%

**Q.** `Cc1onc(C(=O)O)c1NCc1ccc(F)cc1` [Compound 29, 4-((4-Fluorobenzyl)amino)-5-methylisoxazole-3-carboxylic Acid] was tested. Which inhibition at 100 µM did it give?
**A.** 30 to 60%

**Q.** For `Cc1onc(C(=O)O)c1Nc1ccc(C#N)cc1` [Compound 30, 4-((4-Cyanophenyl)amino)-5-methylisoxazole-3-carboxylic Acid], which inhibition at 100 µM is on record?
**A.** < 30%

**Q.** Which inhibition at 100 µM does the source give for `Cc1onc(C(=O)O)c1NCc1ccc(Oc2ccc(C#N)cc2)cc1` [Compound 31, 4-((4-(4-Cyanophenoxy)benzyl)amino)-5-methylisoxazole-3-carboxylic Acid] here?
**A.** 30 to 60%

**Q.** For `Cc1onc(C(=O)O)c1N(Cc1ccc(Oc2ccc(C#N)cc2)cc1)Cc1ccc(Oc2ccc(C#N)cc2)cc1` [Compound 32, 4-(bis(4-(4-Cyanophenoxy)benzyl)amino)-5-methylisoxazole-3-carboxylic Acid], which inhibition at 100 µM is on record?
**A.** > 60%

**Q.** How did the inhibition at 100 µM turn out when `Cc1snc(C(=O)O)c1Nc1ccc(-c2ccc(C#N)cc2)cc1` [Compound 33, 4-((4′-Cyano-[1,1′-biphenyl]-4-yl)amino)-5-methylisothiazole-3-carboxylic Acid] was run?
**A.** > 60%

**Q.** Which inhibition at 100 µM does the source give for `Cc1snc(C(=O)O)c1Nc1ccc(Br)cc1` [Compound 34, 4-((4-Bromophenyl)amino)-5-methylisothiazole-3-carboxylic Acid] here?
**A.** 30 to 60%

**Q.** With `Cc1snc(C(=O)O)c1Nc1cccc(Br)c1` [Compound 35, 4-((3-Bromophenyl)amino)-5-methylisothiazole-3-carboxylic Acid] as the compound, how does the inhibition at 100 µM read?
**A.** 30 to 60%

**Q.** How did the inhibition at 100 µM turn out when `Cc1snc(C(=O)O)c1Nc1cccc(-c2ccc(C#N)cc2)c1` [Compound 36, 4-((4′-Cyano-[1,1′-biphenyl]-3-yl)amino)-5-methylisothiazole-3-carboxylic Acid] was run?
**A.** 30 to 60%

**Q.** How did the inhibition at 100 µM turn out when `Cc1snc(C(=O)O)c1NCc1ccc(F)cc1` [Compound 37, 4-((4-Fluorobenzyl)amino)-5-methylisothiazole-3-carboxylic Acid] was run?
**A.** 30 to 60%

**Q.** Which inhibition at 100 µM does the source give for `Cc1[nH]nc(C(=O)O)c1Nc1ccc(-c2ccc(C#N)cc2)cc1` [Compound 39, 4-((4′-Cyano-[1,1′-biphenyl]-4-yl)amino)-5-methyl-H-pyrazole-3-carboxylic Acid] here?
**A.** 30 to 60%

**Q.** For `Cc1[nH]nc(C(=O)O)c1Nc1ccc(Br)cc1` [Compound 40, 4-((4-Bromophenyl)amino)-5-methyl-1H-pyrazole-3-carboxylic Acid], which inhibition at 100 µM is on record?
**A.** < 30%

**Q.** For `Cc1[nH]nc(C(=O)O)c1Nc1cccc(Br)c1` [Compound 41, 4-((3-Bromophenyl)amino)-5-methyl-1H-pyrazole-3-carboxylic Acid], which inhibition at 100 µM is on record?
**A.** 30 to 60%

**Q.** `Cc1[nH]nc(C(=O)O)c1Nc1cccc(-c2ccc(C#N)cc2)c1` [Compound 42, 4-((4′-Cyano-[1,1′-biphenyl]-3-yl)amino)-5-methyl-1H-pyrazole-3-carboxylic Acid] was tested. Which inhibition at 100 µM did it give?
**A.** 30 to 60%

**Q.** How did the inhibition at 100 µM turn out when `Cc1n[nH]c(C(=O)O)c1NCc1ccc(F)cc1` [Compound 43, 4-((4-Fluorobenzyl)amino)-3-methyl-1H-pyrazole-5-carboxylic Acid] was run?
**A.** 30 to 60%

**Q.** With `Cc1n[nH]c(C(=O)O)c1N(Cc1ccc(F)cc1)Cc1ccc(F)cc1` [Compound 44, 4-(bis(4-Fluorobenzyl)amino)-3-methyl-1H-pyrazole-5-carboxylic Acid] as the compound, how does the inhibition at 100 µM read?
**A.** 30 to 60%

**Q.** How did the inhibition at 100 µM turn out when `Cc1[nH]nc(C(=O)O)c1Nc1ccc(C#N)cc1` [Compound 45, 4-((4-Cyanophenyl)amino)-5-methyl-1H-pyrazole-3-carboxylic Acid] was run?
**A.** 30 to 60%

**Q.** `Cc1onc(C(=O)O)c1Sc1ccc(F)cc1` [Compound 46, 4-((4-Fluorophenyl)thio)-5-methylisoxazole-3-carboxylic Acid] was tested. Which inhibition at 100 µM did it give?
**A.** 30 to 60%

**Q.** How did the inhibition at 100 µM turn out when `N#Cc1ccc(-c2cccc(Nc3ccnnc3C(=O)O)c2)cc1` [Compound 48, sodium salt, 4-((4′-Cyano-[1,1′-biphenyl]-3-yl)amino)pyridazine-3-carboxylic Acid] was run?
**A.** 30 to 60%

**Q.** Which inhibition at 100 µM does the source give for `COc1ccc(CNc2ccnnc2C(=O)O)c(OC)c1` [Compound 49, 4-((2,4-Dimethoxybenzyl)amino)pyridazine-3-carboxylic Acid Na Salt] here?
**A.** 30 to 60%

**Q.** Which inhibition at 100 µM does the source give for `O=C(O)c1nnccc1NCc1ccc(F)cc1` [Compound 50, sodium salt, 4-((4-Fluorobenzyl)amino)pyridazine-3-carboxylic Acid, sodium Salt] here?
**A.** < 30%

**Q.** Which inhibition at 100 µM does the source give for `Cc1onc(C(=O)O)c1SCc1ccccc1` [Compound 51, 4-(Benzylthio)-5-methylisoxazole-3-carboxylic Acid] here?
**A.** < 30%

**Q.** With `O=C(O)c1nnsc1Nc1cccc(-c2ccccn2)c1` [Compound 52, 5-((3-(pyridin-2-yl)phenyl)amino)-1,2,3-thiadiazole-4-carboxylic Acid Na Salt] as the compound, how does the inhibition at 100 µM read?
**A.** > 60%

**Q.** How did the inhibition at 100 µM turn out when `Cc1onc(C(=O)O)c1Nc1ccc(Oc2ccc(C#N)cc2)cc1` [Compound 53, 4-((4-(4-cyanophenoxy)phenyl)amino)-5-methylisoxazole-3-carboxylic Acid] was run?
**A.** 30 to 60%
